Test results as given in US10358436B2, “Kinase inhibitors and method of treating cancer” (University Health Network, priority 2010, dated 2019).

Experiments:
FLT3 = FLT3 (Homo sapiens (Human), UniProt P36888); settings: read-out: % Inhibition @ 0.1 μM, Flt3
Aurora B = Aurora B (Homo sapiens (Human), UniProt Q96GD4); settings: read-out: % Inhibition @ 0.1 μM, Aurora-B
MuSK = MuSK (Homo sapiens (Human), UniProt O15146); format: biochemical; settings: read-out: % Inhibition @ 0.1 μM, MuSK
Bmx = Bmx (Homo sapiens (Human), UniProt P51813); format: biochemical; settings: read-out: % Inhibition @ 0.1 μM, Bmx
Ret (V804L) = Ret (V804L) (Homo sapiens (Human), UniProt P07949, V804L); format: biochemical; settings: read-out: % Inhibition @ 0.1 μM, Ret (V804L)
TrkB = TrkB (Homo sapiens (Human), UniProt Q16620); assay: biochemical; settings: read-out: % Inhibition @ 0.1 μM, TrkB
Ron = Ron (Homo sapiens (Human), UniProt Q04912); format: biochemical; settings: read-out: % Inhibition @ 0.1 μM, Ron
Arg = Arg (Homo sapiens (Human), UniProt P42684); format: biochemical; settings: read-out: % Inhibition @ 0.1 μM, Arg
Lck activated = Lck activated (Homo sapiens (Human), UniProt P06239); format: biochemical; settings: read-out: % Inhibition @ 0.1 μM, Lck activated
Lck activated, sequence (P06239 whole entry): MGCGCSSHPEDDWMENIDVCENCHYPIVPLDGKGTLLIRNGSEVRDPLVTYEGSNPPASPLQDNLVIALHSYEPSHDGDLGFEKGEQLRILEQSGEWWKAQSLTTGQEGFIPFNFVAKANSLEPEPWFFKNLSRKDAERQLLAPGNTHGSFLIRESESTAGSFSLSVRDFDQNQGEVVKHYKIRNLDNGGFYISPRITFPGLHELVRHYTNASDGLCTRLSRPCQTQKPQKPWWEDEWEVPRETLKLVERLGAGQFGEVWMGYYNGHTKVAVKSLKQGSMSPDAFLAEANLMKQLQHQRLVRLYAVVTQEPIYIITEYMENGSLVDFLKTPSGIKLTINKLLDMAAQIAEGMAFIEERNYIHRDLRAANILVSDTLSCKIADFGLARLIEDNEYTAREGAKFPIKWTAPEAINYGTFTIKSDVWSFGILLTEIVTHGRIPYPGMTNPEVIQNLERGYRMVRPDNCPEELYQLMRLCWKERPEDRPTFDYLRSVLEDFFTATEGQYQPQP

Aurora A = Aurora A (Homo sapiens (Human), UniProt O14965); format: biochemical; settings: read-out: % Inhibition @ 0.1 μM, Aurora-A
Aurora A, sequence (O14965 whole entry): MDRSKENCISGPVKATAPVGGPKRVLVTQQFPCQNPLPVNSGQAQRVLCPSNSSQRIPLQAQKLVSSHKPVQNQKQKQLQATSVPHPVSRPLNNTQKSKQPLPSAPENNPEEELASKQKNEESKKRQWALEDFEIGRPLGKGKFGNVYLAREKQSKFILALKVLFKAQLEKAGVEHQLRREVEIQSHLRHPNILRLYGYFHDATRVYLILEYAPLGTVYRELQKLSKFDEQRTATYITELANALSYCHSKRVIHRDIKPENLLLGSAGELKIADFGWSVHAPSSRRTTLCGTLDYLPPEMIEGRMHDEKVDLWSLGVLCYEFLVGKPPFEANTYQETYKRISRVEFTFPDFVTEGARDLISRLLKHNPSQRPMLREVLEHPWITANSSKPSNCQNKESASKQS

EphB1 = EphB1 (Homo sapiens (Human), UniProt P54762); format: biochemical; settings: read-out: % Inhibition @ 0.1 μM, EphB1
FGFR3 = FGFR3 (Homo sapiens (Human), UniProt P22607); format: biochemical; settings: read-out: % Inhibition @ 0.1 μM, FGFR3
FGFR1 (V561M) = FGFR1 (V561M) (Homo sapiens (Human), UniProt P11362, V561M); format: biochemical; settings: read-out: % Inhibition @ 0.1 μM, FGFR1 (V561M)
Ros = Ros (Homo sapiens (Human), UniProt P08922); format: biochemical; settings: read-out: % Inhibition @ 0.1 μM, Ros
FGFR2 (N549H) = FGFR2 (N549H) (Homo sapiens (Human), UniProt P21802, N549H); format: biochemical; settings: read-out: % Inhibition @ 0.1 μM, FGFR2 (N549H)
EphA1 = EphA1 (Homo sapiens (Human), UniProt P21709); format: biochemical; settings: read-out: % Inhibition @ 0.1 μM, EphA1
Abl = Abl (Homo sapiens (Human), UniProt P00519); format: biochemical; settings: read-out: % Inhibition @ 0.1 μM, Abl
Abl (Y253F) = Abl (Y253F) (Homo sapiens (Human), UniProt P00519, Y253F); format: biochemical; settings: read-out: % Inhibition @ 0.1 μM, Abl (Y253F)
IRAK1 = IRAK1 (Homo sapiens (Human), UniProt P51617); format: biochemical; settings: read-out: % Inhibition @ 0.1 μM, IRAK1
IRAK1, sequence (P51617 whole entry): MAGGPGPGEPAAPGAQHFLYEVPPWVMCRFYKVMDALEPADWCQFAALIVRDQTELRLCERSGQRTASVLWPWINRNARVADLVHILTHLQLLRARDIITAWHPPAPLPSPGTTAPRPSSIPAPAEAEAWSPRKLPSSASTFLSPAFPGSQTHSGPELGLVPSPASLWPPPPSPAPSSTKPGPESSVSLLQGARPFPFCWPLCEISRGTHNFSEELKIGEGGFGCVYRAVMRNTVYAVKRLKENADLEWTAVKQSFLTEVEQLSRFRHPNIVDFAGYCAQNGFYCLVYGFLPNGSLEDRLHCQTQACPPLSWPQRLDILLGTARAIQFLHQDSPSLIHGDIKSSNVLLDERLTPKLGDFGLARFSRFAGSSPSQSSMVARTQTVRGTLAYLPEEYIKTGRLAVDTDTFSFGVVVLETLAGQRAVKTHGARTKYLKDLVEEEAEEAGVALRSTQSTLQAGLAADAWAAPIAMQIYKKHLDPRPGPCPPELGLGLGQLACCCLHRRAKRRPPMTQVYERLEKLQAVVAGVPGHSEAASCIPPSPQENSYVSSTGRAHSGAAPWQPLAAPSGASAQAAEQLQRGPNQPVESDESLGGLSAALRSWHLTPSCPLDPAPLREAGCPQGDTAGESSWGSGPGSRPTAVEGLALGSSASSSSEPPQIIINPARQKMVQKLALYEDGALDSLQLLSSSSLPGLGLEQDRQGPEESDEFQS

Itk = Itk (Homo sapiens (Human), UniProt Q08881); format: biochemical; settings: read-out: % Inhibition @ 0.1 μM, Itk
Abl (m) = Abl (m) (Mus musculus (Mouse), UniProt P00520); format: biochemical; settings: read-out: % Inhibition @ 0.1 μM, Abl (m)
Tie2 (R849W) = Tie2 (R849W) (Homo sapiens (Human), UniProt Q02763, R849W); format: biochemical; settings: read-out: % Inhibition @ 0.1 μM, Tie2 (R849W)
Abl (Q252H) = Abl (Q252H) (Homo sapiens (Human), UniProt P00519, Q252H); format: biochemical; settings: read-out: % Inhibition @ 0.1 μM, Abl (Q252H)
Arg (m) = Arg (m) (Mus musculus (Mouse), UniProt Q4JIM5); format: biochemical; settings: read-out: % Inhibition @ 0.1 μM, Arg (m)
Abl (M351T) = Abl (M351T) (Homo sapiens (Human), UniProt P00519, M351T); format: biochemical; settings: read-out: % Inhibition @ 0.1 μM, Abl (M351T)
Tie2 (Y897S) = Tie2 (Y897S) (Homo sapiens (Human), UniProt Q02763, Y897S); format: biochemical; settings: read-out: % Inhibition @ 0.1 μM, Tie2 (Y897S)
FGFR1 = FGFR1 (Homo sapiens (Human), UniProt P11362); format: biochemical; settings: read-out: % Inhibition @ 0.1 μM, FGFR1
Abl (H396P) = Abl (H396P) (Homo sapiens (Human), UniProt P00519, H396P); format: biochemical; settings: read-out: % Inhibition @ 0.1 μM, Abl (H396P)
Abl (T315I) = Abl (T315I) (Homo sapiens (Human), UniProt P00519, T315I); format: biochemical; settings: read-out: % Inhibition @ 0.1 μM, Abl (T315I)
Tie2 = Tie2 (Homo sapiens (Human), UniProt Q02763); format: biochemical; settings: read-out: % Inhibition @ 0.1 μM, Tie2
GCK = GCK (Homo sapiens (Human), UniProt Q12851); format: biochemical; settings: read-out: % Inhibition @ 0.1 μM, GCK
TRKA = TRKA (Homo sapiens (Human), UniProt P04629); format: biochemical; settings: read-out: % Inhibition @ 0.1 μM, TrkA
TRKA, sequence (P04629 33-796): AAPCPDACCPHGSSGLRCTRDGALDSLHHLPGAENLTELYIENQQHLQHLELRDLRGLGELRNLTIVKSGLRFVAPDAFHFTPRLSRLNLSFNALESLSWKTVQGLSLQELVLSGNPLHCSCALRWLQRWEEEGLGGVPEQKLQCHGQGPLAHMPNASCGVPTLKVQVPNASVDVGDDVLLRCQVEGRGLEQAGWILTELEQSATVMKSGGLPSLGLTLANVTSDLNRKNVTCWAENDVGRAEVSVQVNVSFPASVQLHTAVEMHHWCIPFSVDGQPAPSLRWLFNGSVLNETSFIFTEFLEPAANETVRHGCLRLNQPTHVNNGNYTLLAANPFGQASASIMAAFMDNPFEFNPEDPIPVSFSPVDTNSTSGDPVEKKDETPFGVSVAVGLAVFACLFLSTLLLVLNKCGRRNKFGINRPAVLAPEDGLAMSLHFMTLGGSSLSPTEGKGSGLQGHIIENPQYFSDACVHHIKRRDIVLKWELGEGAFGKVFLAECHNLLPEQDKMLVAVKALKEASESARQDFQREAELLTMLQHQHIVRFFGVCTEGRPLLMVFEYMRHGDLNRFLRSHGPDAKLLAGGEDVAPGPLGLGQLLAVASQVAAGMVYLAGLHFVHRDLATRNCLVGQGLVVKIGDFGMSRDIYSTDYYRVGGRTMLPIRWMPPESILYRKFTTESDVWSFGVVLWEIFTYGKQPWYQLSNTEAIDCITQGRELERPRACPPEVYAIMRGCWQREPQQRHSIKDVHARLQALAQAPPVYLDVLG

ALK = ALK (Homo sapiens (Human), UniProt Q9UM73); format: biochemical; settings: read-out: % Inhibition @ 0.1 μM, ALK
ALK, sequence (Q9UM73 19-1620): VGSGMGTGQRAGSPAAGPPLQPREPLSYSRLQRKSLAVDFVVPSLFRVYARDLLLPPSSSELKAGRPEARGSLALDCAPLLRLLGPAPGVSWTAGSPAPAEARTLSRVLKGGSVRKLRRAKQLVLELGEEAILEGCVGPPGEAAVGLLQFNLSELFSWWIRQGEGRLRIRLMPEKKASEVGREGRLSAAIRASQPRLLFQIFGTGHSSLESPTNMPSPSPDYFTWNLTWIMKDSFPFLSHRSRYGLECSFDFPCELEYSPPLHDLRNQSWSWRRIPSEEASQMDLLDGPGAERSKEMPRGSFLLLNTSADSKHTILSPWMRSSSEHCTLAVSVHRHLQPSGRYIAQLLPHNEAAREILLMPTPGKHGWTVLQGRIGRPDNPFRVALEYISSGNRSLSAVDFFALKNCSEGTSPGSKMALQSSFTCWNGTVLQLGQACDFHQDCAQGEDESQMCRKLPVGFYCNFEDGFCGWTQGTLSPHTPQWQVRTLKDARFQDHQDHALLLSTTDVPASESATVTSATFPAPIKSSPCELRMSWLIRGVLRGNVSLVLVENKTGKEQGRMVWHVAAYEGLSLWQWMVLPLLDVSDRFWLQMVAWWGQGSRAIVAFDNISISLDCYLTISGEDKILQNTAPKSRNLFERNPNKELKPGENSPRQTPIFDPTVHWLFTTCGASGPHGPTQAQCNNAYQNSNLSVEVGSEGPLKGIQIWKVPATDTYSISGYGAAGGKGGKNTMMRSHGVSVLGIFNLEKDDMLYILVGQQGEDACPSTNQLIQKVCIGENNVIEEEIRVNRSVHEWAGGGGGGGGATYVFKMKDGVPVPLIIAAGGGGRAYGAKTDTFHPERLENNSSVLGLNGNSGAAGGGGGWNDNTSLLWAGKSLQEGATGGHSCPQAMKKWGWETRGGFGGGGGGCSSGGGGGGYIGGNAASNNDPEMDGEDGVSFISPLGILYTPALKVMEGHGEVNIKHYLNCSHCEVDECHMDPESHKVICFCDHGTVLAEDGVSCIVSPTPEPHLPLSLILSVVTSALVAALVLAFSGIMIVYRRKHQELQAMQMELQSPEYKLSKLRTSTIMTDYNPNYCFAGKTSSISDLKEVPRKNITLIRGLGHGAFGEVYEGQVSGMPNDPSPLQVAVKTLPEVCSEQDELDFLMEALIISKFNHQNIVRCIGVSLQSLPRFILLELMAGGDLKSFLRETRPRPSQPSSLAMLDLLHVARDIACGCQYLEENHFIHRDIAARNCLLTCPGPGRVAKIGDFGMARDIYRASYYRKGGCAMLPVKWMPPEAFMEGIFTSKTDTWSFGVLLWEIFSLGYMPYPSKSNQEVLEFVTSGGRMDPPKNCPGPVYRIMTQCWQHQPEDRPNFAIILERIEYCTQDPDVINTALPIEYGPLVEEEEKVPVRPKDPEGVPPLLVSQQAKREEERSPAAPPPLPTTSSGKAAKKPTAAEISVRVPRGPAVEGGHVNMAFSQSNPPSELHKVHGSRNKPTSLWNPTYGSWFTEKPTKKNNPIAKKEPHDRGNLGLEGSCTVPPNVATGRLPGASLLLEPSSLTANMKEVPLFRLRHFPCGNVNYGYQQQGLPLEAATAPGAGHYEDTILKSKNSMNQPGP

Lck = Lck (Homo sapiens (Human), UniProt P06239); format: biochemical; settings: read-out: % Inhibition @ 0.1 μM, Lck
Lck, sequence (P06239 whole entry): as the sequence (P06239 whole entry) above

ARK5 = ARK5 (Homo sapiens (Human), UniProt O60285); format: biochemical; settings: read-out: % Inhibition @ 0.1 μM, ARK5
ARK5, sequence (O60285 whole entry): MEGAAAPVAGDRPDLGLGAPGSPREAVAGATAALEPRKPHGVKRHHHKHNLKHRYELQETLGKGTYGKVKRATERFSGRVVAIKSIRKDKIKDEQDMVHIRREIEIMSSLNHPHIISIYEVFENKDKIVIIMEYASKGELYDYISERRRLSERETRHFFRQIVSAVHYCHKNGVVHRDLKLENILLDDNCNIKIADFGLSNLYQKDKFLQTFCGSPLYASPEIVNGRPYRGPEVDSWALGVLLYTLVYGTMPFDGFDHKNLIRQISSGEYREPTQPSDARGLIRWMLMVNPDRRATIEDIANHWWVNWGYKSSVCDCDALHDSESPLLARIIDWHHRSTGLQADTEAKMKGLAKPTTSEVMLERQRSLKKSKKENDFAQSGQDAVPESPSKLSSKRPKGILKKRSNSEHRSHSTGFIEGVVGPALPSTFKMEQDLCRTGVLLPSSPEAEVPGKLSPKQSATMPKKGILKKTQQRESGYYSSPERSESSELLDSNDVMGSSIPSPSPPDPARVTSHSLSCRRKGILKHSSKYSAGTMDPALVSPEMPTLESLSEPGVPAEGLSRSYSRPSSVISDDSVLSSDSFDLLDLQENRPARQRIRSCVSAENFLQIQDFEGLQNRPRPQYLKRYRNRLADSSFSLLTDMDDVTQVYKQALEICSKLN

FGFR2 = FGFR2 (Homo sapiens (Human), UniProt P21802); format: biochemical; settings: read-out: % Inhibition @ 0.1 μM, FGFR2

Aurora B, sequence (Q96GD4 whole entry): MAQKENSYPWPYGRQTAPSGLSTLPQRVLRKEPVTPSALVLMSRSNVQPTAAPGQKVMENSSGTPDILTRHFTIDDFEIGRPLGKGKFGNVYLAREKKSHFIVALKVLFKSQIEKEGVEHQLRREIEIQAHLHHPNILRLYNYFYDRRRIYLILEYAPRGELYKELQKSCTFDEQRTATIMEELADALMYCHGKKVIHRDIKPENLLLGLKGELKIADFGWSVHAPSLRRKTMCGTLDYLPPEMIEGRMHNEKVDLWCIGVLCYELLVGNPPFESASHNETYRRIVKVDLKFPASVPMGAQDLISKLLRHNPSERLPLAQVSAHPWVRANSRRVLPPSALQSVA

COc1ccc2c(c1)[C@]1(C[C@H]1c1ccc3c(/C=C/c4ccc(N5CCN(C)CC5)nc4)n[nH]c3c1)C(=O)N2 [Example A33, (1R,2S)-5′-methoxy-2-(3-((E)-2-(6-(4-methylpiperazin-1-yl)pyridin-3-yl)vinyl)-1H-indazol-6-yl)spiro[cyclopropane-1,3′-indolin]-2′-one 2,2,2-trifluoroacetate]
inhibition at 0.1 µM (FLT3): 28%
inhibition at 0.1 µM (Aurora B): 100%
inhibition at 0.1 µM (MuSK): 18%
inhibition at 0.1 µM (Bmx): 68%
inhibition at 0.1 µM (Ret (V804L)): 43%
inhibition at 0.1 µM (TrkB): 98%
inhibition at 0.1 µM (Ron): 42%
inhibition at 0.1 µM (Arg): 94%
inhibition at 0.1 µM (Lck activated): 41%
inhibition at 0.1 µM (Aurora A): 96%
inhibition at 0.1 µM (EphB1): 34%
inhibition at 0.1 µM (FGFR3): 91%
inhibition at 0.1 µM (FGFR1 (V561M)): 91%
inhibition at 0.1 µM (Ros): 23%
inhibition at 0.1 µM (FGFR2 (N549H)): 75%
inhibition at 0.1 µM (EphA1): 22%
inhibition at 0.1 µM (Abl): 72%
inhibition at 0.1 µM (Abl (Y253F)): 78%
inhibition at 0.1 µM (IRAK1): 24%
inhibition at 0.1 µM (Itk): 34%
inhibition at 0.1 µM (Abl (m)): 96%
inhibition at 0.1 µM (Tie2 (R849W)): 40%
inhibition at 0.1 µM (Abl (Q252H)): 83%
inhibition at 0.1 µM (Arg (m)): 96%
inhibition at 0.1 µM (Abl (M351T)): 95%
inhibition at 0.1 µM (Tie2 (Y897S)): 49%
inhibition at 0.1 µM (FGFR1): 87%
inhibition at 0.1 µM (Abl (H396P)): 93%
inhibition at 0.1 µM (Abl (T315I)): 94%
inhibition at 0.1 µM (Tie2): 83%
inhibition at 0.1 µM (GCK): 51%
inhibition at 0.1 µM (TRKA): 97%
inhibition at 0.1 µM (ALK): 32%
inhibition at 0.1 µM (Lck): 48%
inhibition at 0.1 µM (ARK5): 67%
inhibition at 0.1 µM (FGFR2): 82%
